Activity calls are given as the source filed them. How the calls were made is not given here.
System: CCRIS mutagenicity, Ames/micronucleus/aberration tests
Assay: CCRIS mutagenicity studies
Conditions: Test System: AMES SALMONELLA TYPHIMURIUM, Method: PREINCUBATION

Measured: mutagenic call

N#CCc1ccccc1
inactive: Strain/Indicator: TA97, Metabolic Activation: HAMSTER, LIVER, S-9, AROCLOR 1254 (10%) inactive; negative | Strain/Indicator: TA97, Metabolic Activation: HAMSTER, LIVER, S-9, AROCLOR 1254 (30%) inactive; negative | Strain/Indicator: TA97, Metabolic Activation: NONE inactive; negative | Strain/Indicator: TA97, Metabolic Activation: RAT, LIVER, S-9, AROCLOR 1254 (5 OR 30%) inactive; negative | Strain/Indicator: TA97, Metabolic Activation: RAT, LIVER, S-9, AROCLOR 1254 (10%) inactive; negative | Strain/Indicator: TA98, Metabolic Activation: HAMSTER, LIVER, S-9, AROCLOR 1254 (10%) inactive; negative | Strain/Indicator: TA98, Metabolic Activation: HAMSTER, LIVER, S-9, AROCLOR 1254 (30%) inactive; negative | Strain/Indicator: TA98, Metabolic Activation: NONE inactive; negative | Strain/Indicator: TA98, Metabolic Activation: RAT, LIVER, S-9, AROCLOR 1254 (10%) inactive; negative | Strain/Indicator: TA98, Metabolic Activation: RAT, LIVER, S-9, AROCLOR 1254 (30%) inactive; negative | Strain/Indicator: TA100, Metabolic Activation: HAMSTER, LIVER, S-9, AROCLOR 1254 (10%) inactive; negative | Strain/Indicator: TA100, Metabolic Activation: HAMSTER, LIVER, S-9, AROCLOR 1254 (30%) inactive; negative | Strain/Indicator: TA100, Metabolic Activation: NONE inactive; negative | Strain/Indicator: TA100, Metabolic Activation: RAT, LIVER, S-9, AROCLOR 1254 (10%) inactive; negative | Strain/Indicator: TA100, Metabolic Activation: RAT, LIVER, S-9, AROCLOR 1254 (30%) inactive; negative | Strain/Indicator: TA1535, Metabolic Activation: HAMSTER, LIVER, S-9, AROCLOR 1254 (10%) inactive; negative | Strain/Indicator: TA1535, Metabolic Activation: HAMSTER, LIVER, S-9, AROCLOR 1254 (30%) inactive; negative | Strain/Indicator: TA1535, Metabolic Activation: NONE inactive; negative | Strain/Indicator: TA1535, Metabolic Activation: RAT, LIVER, S-9, AROCLOR 1254 (30%) inactive; negative | Strain/Indicator: TA1537, Metabolic Activation: HAMSTER, LIVER, S-9, AROCLOR 1254 (10%) inactive; negative | Strain/Indicator: TA1537, Metabolic Activation: HAMSTER, LIVER, S-9, AROCLOR 1254 (30%) inactive; negative | Strain/Indicator: TA1537, Metabolic Activation: NONE inactive; negative | Strain/Indicator: TA1537, Metabolic Activation: RAT, LIVER, S-9, AROCLOR 1254 (10%) inactive; negative | Strain/Indicator: TA1537, Metabolic Activation: RAT, LIVER, S-9, AROCLOR 1254 (30%) inactive; negative

— PubChem BioAssay AID1259407 (Chemical Carcinogenesis Research Information System (CCRIS), 2018)
